Test results as given in ChEMBL document CHEMBL1671627, “Increasing trends in antimicrobial resistance among clinically important anaerobes and Bacteroides fragilis isolates causing nosocomial infections: emerging resistance to carbapenems” (2008).
≈ marks a conversion by molar mass, not a printed value.

Key:
Fusobacterium varium [1] = test: Antibacterial activity against Fusobacterium varium assessed as susceptible isolates by CLSI agar dilution method; type: functional
Fusobacterium nucleatum [2] = test: Antibacterial activity against Fusobacterium nucleatum by CLSI agar dilution method; type: functional
Fusobacterium mortiferum [3] = test: Antibacterial activity against Fusobacterium mortiferum assessed as susceptible isolates by CLSI agar dilution method; type: functional
Finegoldia magna [4] = test: Antibacterial activity against beta-lactamase producing Finegoldia magna assessed as resistant isolates by CLSI agar dilution method; type: functional
Clostridium septicum [5] = test: Antibacterial activity against beta-lactamase producing Clostridium septicum assessed as susceptible isolates by CLSI agar dilution method; type: functional
[6] = test system: Peptostreptococcus anaerobius; test: Antibacterial activity against beta-lactamase producing Peptostreptococcus anaerobius assessed as susceptible isolates by CLSI agar dilution method; type: functional
Clostridium septicum [7] = test: Antibacterial activity against beta-lactamase producing Clostridium septicum assessed as resistant isolates by CLSI agar dilution method; type: functional
Veillonella parvula = test: Antibacterial activity against Veillonella parvula by CLSI agar dilution method; type: functional
[8] = test system: Clostridium paraputrificum; test: Antibacterial activity against beta-lactamase producing Clostridium paraputrificum assessed as resistant isolates by CLSI agar dilution method; type: functional
Prevotella bivia [9] = test: Antibacterial activity against Prevotella bivia assessed as susceptible isolates by CLSI agar dilution method; type: functional
Parvimonas micra [10] = test: Antibacterial activity against beta-lactamase producing Micromonas micros assessed as resistant isolates by CLSI agar dilution method; type: functional
Prevotella intermedia [11] = test: Antibacterial activity against Prevotella intermedia assessed as susceptible isolates by CLSI agar dilution method; type: functional
Prevotella bivia [12] = test: Antibacterial activity against Prevotella bivia assessed as resistant isolates by CLSI agar dilution method; type: functional
Prevotella buccae [13] = test: Antibacterial activity against Prevotella buccae assessed as resistant isolates by CLSI agar dilution method; type: functional, Segatella buccae
Fusobacterium mortiferum [14] = test: Antibacterial activity against Fusobacterium mortiferum assessed as resistant isolates by CLSI agar dilution method; type: functional
Parvimonas micra [15] = test: Antibacterial activity against beta-lactamase producing Micromonas micros assessed as susceptible isolates by CLSI agar dilution method; type: functional
Fusobacterium nucleatum [16] = test: Antibacterial activity against Fusobacterium nucleatum assessed as susceptible isolates by CLSI agar dilution method; type: functional
[17] = test system: Prevotella melaninogenica; test: Antibacterial activity against Prevotella melaninogenica assessed as susceptible isolates by CLSI agar dilution method; type: functional
Clostridium septicum [18] = test: Antibacterial activity against beta-lactamase producing Clostridium septicum by CLSI agar dilution method; type: functional
Fusobacterium mortiferum [19] = test: Antibacterial activity against Fusobacterium mortiferum by CLSI agar dilution method; type: functional
Prevotella buccae [20] = test: Antibacterial activity against Prevotella buccae by CLSI agar dilution method; type: functional; conditions: Segatella buccae
[21] = test system: Fusobacterium necrophorum; test: Antibacterial activity against Fusobacterium necrophorum by CLSI agar dilution method; type: functional
Bacteroides uniformis [22] = test: Antibacterial activity against beta-lactamase producing Bacteroides uniformis by CLSI agar dilution method; type: functional
[23] = test system: Clostridium paraputrificum; test: Antibacterial activity against beta-lactamase producing Clostridium paraputrificum assessed as susceptible isolates by CLSI agar dilution method; type: functional
Phocaeicola vulgatus [24] = test: Antibacterial activity against beta-lactamase producing Bacteroides vulgatus assessed as susceptible isolates by CLSI agar dilution method; type: functional
[25] = test system: Prevotella melaninogenica; test: Antibacterial activity against Prevotella melaninogenica assessed as resistant isolates by CLSI agar dilution method; type: functional
Bacteroides fragilis [26] = test: Antibacterial activity against Bacteroides fragilis assessed as resistant isolates by CLSI agar dilution method; type: functional
[27] = test system: Clostridium paraputrificum; test: Antibacterial activity against beta-lactamase producing Clostridium paraputrificum by CLSI agar dilution method; type: functional
Clostridium tertium [28] = test: Antibacterial activity against beta-lactamase producing Clostridium tertium assessed as resistant isolates by CLSI agar dilution method; type: functional
[29] = test system: Peptostreptococcus anaerobius; test: Antibacterial activity against beta-lactamase producing Peptostreptococcus anaerobius assessed as resistant isolates by CLSI agar dilution method; type: functional
[30] = test system: Peptoniphilus asaccharolyticus; test: Antibacterial activity against beta-lactamase producing Peptoniphilus asaccharolyticus assessed as susceptible isolates by CLSI agar dilution method; type: functional
Clostridium tertium [31] = test: Antibacterial activity against beta-lactamase producing Clostridium tertium assessed as susceptible isolates by CLSI agar dilution method; type: functional
[32] = test system: Peptostreptococcus anaerobius; test: Antibacterial activity against beta-lactamase producing Peptostreptococcus anaerobius by CLSI agar dilution method; type: functional
Bacteroides caccae [33] = test: Antibacterial activity against beta-lactamase producing Bacteroides caccae by CLSI agar dilution method; type: functional
Bacteroides caccae [34] = test: Antibacterial activity against beta-lactamase producing Bacteroides caccae assessed as susceptible isolates by CLSI agar dilution method; type: functional
Finegoldia magna [35] = test: Antibacterial activity against beta-lactamase producing Finegoldia magna assessed as susceptible isolates by CLSI agar dilution method; type: functional
Bacteroides uniformis [36] = test: Antibacterial activity against beta-lactamase producing Bacteroides uniformis assessed as susceptible isolates by CLSI agar dilution method; type: functional
Parvimonas micra [37] = test: Antibacterial activity against beta-lactamase producing Micromonas micros by CLSI agar dilution method; type: functional
Fusobacterium varium [38] = test: Antibacterial activity against Fusobacterium varium assessed as resistant isolates by CLSI agar dilution method; type: functional
Bacteroides caccae [39] = test: Antibacterial activity against beta-lactamase producing Bacteroides caccae assessed as resistant isolates by CLSI agar dilution method; type: functional
[40] = test system: Peptoniphilus asaccharolyticus; test: Antibacterial activity against beta-lactamase producing Peptoniphilus asaccharolyticus by CLSI agar dilution method; type: functional
Bacteroides fragilis [41] = test: Antibacterial activity against Bacteroides fragilis by CLSI agar dilution method; type: functional
[42] = test system: Peptoniphilus asaccharolyticus; test: Antibacterial activity against beta-lactamase producing Peptoniphilus asaccharolyticus assessed as resistant isolates by CLSI agar dilution method; type: functional
Prevotella bivia [43] = test: Antibacterial activity against Prevotella bivia by CLSI agar dilution method; type: functional
[44] = test system: Bacteroides thetaiotaomicron; test: Antibacterial activity against beta-lactamase producing Bacteroides thetaiotaomicron assessed as resistant isolates by CLSI agar dilution method; type: functional
[45] = test system: Bacteroides thetaiotaomicron; test: Antibacterial activity against beta-lactamase producing Bacteroides thetaiotaomicron by CLSI agar dilution method; type: functional
Phocaeicola vulgatus [46] = test: Antibacterial activity against beta-lactamase producing Bacteroides vulgatus by CLSI agar dilution method; type: functional
Clostridium perfringens = test: microbe, parasite or virus in culture; type: functional
[47] = test system: Fusobacterium necrophorum; test: Antibacterial activity against Fusobacterium necrophorum assessed as susceptible isolates by CLSI agar dilution method; type: functional
Bacteroides uniformis [48] = test: Antibacterial activity against beta-lactamase producing Bacteroides uniformis assessed as resistant isolates by CLSI agar dilution method; type: functional
Clostridium tertium [49] = test: Antibacterial activity against beta-lactamase producing Clostridium tertium by CLSI agar dilution method; type: functional
[50] = test system: Fusobacterium necrophorum; test: Antibacterial activity against Fusobacterium necrophorum assessed as resistant isolates by CLSI agar dilution method; type: functional
Prevotella intermedia [51] = test: Antibacterial activity against Prevotella intermedia assessed as resistant isolates by CLSI agar dilution method; type: functional
Phocaeicola vulgatus [52] = test: Antibacterial activity against beta-lactamase producing Bacteroides vulgatus assessed as resistant isolates by CLSI agar dilution method; type: functional
Prevotella buccae [53] = test: Antibacterial activity against Prevotella buccae assessed as susceptible isolates by CLSI agar dilution method; type: functional, Segatella buccae
[54] = test system: Prevotella melaninogenica; test: Antibacterial activity against Prevotella melaninogenica by CLSI agar dilution method; type: functional
[55] = test system: Bacteroides thetaiotaomicron; test: Antibacterial activity against beta-lactamase producing Bacteroides thetaiotaomicron assessed as susceptible isolates by CLSI agar dilution method; type: functional
Fusobacterium varium [56] = test: Antibacterial activity against Fusobacterium varium by CLSI agar dilution method; type: functional
Bacteroides fragilis [57] = test: Antibacterial activity against Bacteroides fragilis assessed as susceptible isolates by CLSI agar dilution method; type: functional
Fusobacterium nucleatum [58] = test: Antibacterial activity against Fusobacterium nucleatum assessed as resistant isolates by CLSI agar dilution method; type: functional
Finegoldia magna [59] = test: Antibacterial activity against beta-lactamase producing Finegoldia magna by CLSI agar dilution method; type: functional
Prevotella intermedia [60] = test: Antibacterial activity against Prevotella intermedia by CLSI agar dilution method; type: functional

C[C@@H](O)[C@H]1C(=O)N2C(C(=O)O)=C(SCCNC=N)C[C@H]12 [IMIPENEM ANHYDROUS]
Activity (Fusobacterium varium [1]): 96%
MIC (Fusobacterium nucleatum [2]): 0.01 µg/mL (≈ 0.0334 µM)
MIC50 (Fusobacterium nucleatum [2]): 0.5 µg/mL (≈ 1.67 µM)
MIC90 (Fusobacterium nucleatum [2]): 4 µg/mL (≈ 13.4 µM)
Activity (Fusobacterium mortiferum [3]): 96%
Activity (Finegoldia magna [4]): 0%
Activity (Clostridium septicum [5]): 85%
Activity [6]: 100%
Activity (Clostridium septicum [7]): 4%
MIC (Veillonella parvula): 0.12 µg/mL (≈ 0.401 µM)
Activity [8]: 4%
Activity (Prevotella bivia [9]): 94%
Activity (Parvimonas micra [10]): 0%
Activity (Prevotella intermedia [11]): 94%
Activity (Prevotella bivia [12]): 6%
Activity (Prevotella buccae [13]): 6%
Activity (Fusobacterium mortiferum [14]): 4%
Activity (Parvimonas micra [15]): 100%
Activity (Fusobacterium nucleatum [16]): 96%
Activity [17]: 94%
MIC50 (Clostridium septicum [18]): 0.25 µg/mL (≈ 0.835 µM)
MIC90 (Clostridium septicum [18]): 8 µg/mL (≈ 26.7 µM)
MIC (Fusobacterium mortiferum [19]): 0.01 µg/mL (≈ 0.0334 µM)
MIC50 (Fusobacterium mortiferum [19]): 0.5 µg/mL (≈ 1.67 µM)
MIC90 (Fusobacterium mortiferum [19]): 4 µg/mL (≈ 13.4 µM)
MIC50 (Prevotella buccae [20]): 0.25 µg/mL (≈ 0.835 µM)
MIC90 (Prevotella buccae [20]): 0.5 µg/mL (≈ 1.67 µM)
MIC [21]: 0.01 µg/mL (≈ 0.0334 µM)
MIC50 [21]: 0.5 µg/mL (≈ 1.67 µM)
MIC90 [21]: 4 µg/mL (≈ 13.4 µM)
MIC50 (Bacteroides uniformis [22]): 1 µg/mL (≈ 3.34 µM)
MIC90 (Bacteroides uniformis [22]): 4 µg/mL (≈ 13.4 µM)
Activity [23]: 85%
Activity (Phocaeicola vulgatus [24]): 96%
Activity [25]: 6%
Activity (Bacteroides fragilis [26]): 3%
MIC50 [27]: 0.25 µg/mL (≈ 0.835 µM)
MIC90 [27]: 8 µg/mL (≈ 26.7 µM)
Activity (Clostridium tertium [28]): 4%
Activity [29]: 0%
Activity [30]: 100%
Activity (Clostridium tertium [31]): 85%
MIC50 [32]: 0.06 µg/mL (≈ 0.2 µM)
MIC90 [32]: 0.5 µg/mL (≈ 1.67 µM)
MIC50 (Bacteroides caccae [33]): 1 µg/mL (≈ 3.34 µM)
MIC90 (Bacteroides caccae [33]): 4 µg/mL (≈ 13.4 µM)
Activity (Bacteroides caccae [34]): 96%
Activity (Finegoldia magna [35]): 100%
Activity (Bacteroides uniformis [36]): 96%
MIC50 (Parvimonas micra [37]): 0.06 µg/mL (≈ 0.2 µM)
MIC90 (Parvimonas micra [37]): 0.5 µg/mL (≈ 1.67 µM)
Activity (Fusobacterium varium [38]): 4%
Activity (Bacteroides caccae [39]): 4%
MIC50 [40]: 0.06 µg/mL (≈ 0.2 µM)
MIC90 [40]: 0.5 µg/mL (≈ 1.67 µM)
MIC50 (Bacteroides fragilis [41]): 0.5 µg/mL (≈ 1.67 µM)
MIC90 (Bacteroides fragilis [41]): 4 µg/mL (≈ 13.4 µM)
Activity [42]: 0%
MIC50 (Prevotella bivia [43]): 0.25 µg/mL (≈ 0.835 µM)
MIC90 (Prevotella bivia [43]): 0.5 µg/mL (≈ 1.67 µM)
Activity [44]: 0%
MIC50 [45]: 0.5 µg/mL (≈ 1.67 µM)
MIC90 [45]: 4 µg/mL (≈ 13.4 µM)
MIC50 (Phocaeicola vulgatus [46]): 1 µg/mL (≈ 3.34 µM)
MIC90 (Phocaeicola vulgatus [46]): 4 µg/mL (≈ 13.4 µM)
MIC50 (Clostridium perfringens): 0.25 µg/mL (≈ 0.835 µM)
MIC90 (Clostridium perfringens): 8 µg/mL (≈ 26.7 µM)
Activity [47]: 96%
Activity (Bacteroides uniformis [48]): 4%
MIC50 (Clostridium tertium [49]): 0.25 µg/mL (≈ 0.835 µM)
MIC90 (Clostridium tertium [49]): 8 µg/mL (≈ 26.7 µM)
Activity [50]: 4%
Activity (Prevotella intermedia [51]): 6%
Activity (Phocaeicola vulgatus [52]): 4%
Activity (Prevotella buccae [53]): 94%
MIC50 [54]: 0.25 µg/mL (≈ 0.835 µM)
MIC90 [54]: 0.5 µg/mL (≈ 1.67 µM)
Activity [55]: 93%
MIC (Fusobacterium varium [56]): 0.01 µg/mL (≈ 0.0334 µM)
MIC50 (Fusobacterium varium [56]): 0.5 µg/mL (≈ 1.67 µM)
MIC90 (Fusobacterium varium [56]): 4 µg/mL (≈ 13.4 µM)
Activity (Bacteroides fragilis [57]): 93%
Activity (Fusobacterium nucleatum [58]): 4%
MIC50 (Finegoldia magna [59]): 0.06 µg/mL (≈ 0.2 µM)
MIC90 (Finegoldia magna [59]): 0.5 µg/mL (≈ 1.67 µM)
MIC50 (Prevotella intermedia [60]): 0.25 µg/mL (≈ 0.835 µM)
MIC90 (Prevotella intermedia [60]): 0.5 µg/mL (≈ 1.67 µM)
